According to US20210386791A1, “METHODS OF CELLULAR REPROGRAMMING” (TissueTech, Inc., priority 2018, published 2021):

Experiments:
[1] = tested on: human corneal fibroblasts (HCF); test: Timing course analysis of SDF1/CXCR4 and BMP signaling in HCF; assay type: cell-based; settings: time course
[2] = tested on: human corneal fibroblasts (HCF); test: Reversal of HCF to keratocytes on immobilized HC-HA/PTX3 with or without SB431542 or AMD3100; assay type: cell-based; settings: day 1 up to 7 days
Protocol: A total of 86 human corneas from individuals aged 18-76 years and maintained at 4° C. in Optisol (Chiron Vision, Irvine, Calif.) for less than 7 days after death were obtained from the Florida Lions Eye Bank (Miami, Fla.) and handled according to the declaration of Helsinki. HCF were isolated and cultured. Briefly, the sheets of the epithelium and the endothelium were removed from corneas, the stroma sections were cut into cubes of approximately 1 mm3, incubated in 2 mg/ml collagenase for 16 h at 37° C., and then placed in a culture medium consisting of DMEM supplemented with 10% fetal bovine serum containing […]. The culture medium was refreshed twice a week. The cells cultured to passage 3 were used for all experiments. To reverse fibroblasts or myofibroblasts into keratocytes, fibroblasts or myofibroblasts were cultured on immobilized HC-HA/PTX3 in DMEM+10% FBS for 3 days using the samples from the cells on plastic and HA as the controls. Some of the cell cultures were extended to up to 7 days of culture to monitor the expression of α-SMA formation. Total RNAs were extracted using RNeasy Mini Kit (Qiagen) and reverse-transcribed using High Capacity Reverse Transcription Kit (Applied Biosystems). cDNA was amplified by real-time RT-PCR using specific primer-probe mixtures and DNA polymerase in Quant Studio 5 Real-time PCR System (Applied Biosystems). Real-time RT-PCR profile consisted of 10 min of initial activation at 95° C., followed by 40 cycles of 15 s denaturation at 95° C., and 1 min annealing and extension at 60° C. The genuine identity of each PCR product was confirmed by the size determination using 2% agarose gels followed by ethidium bromide staining together with PCR marker according to EC3 Imaging System (BioImaging System, Upland, Calif.). The samples of human corneal fibroblasts, myofibroblasts and corneal keratocytes were air-dried and fixed in 4% formaldehyde, pH 7.0, for 15 min at room temperature, rehydrated in PBS, incubated with 0.2% Triton X-100 for 15 min, and rinsed 3 times with PBS for 5 min each. […] After three washes with PBS, they were incubated with corresponding Alexa-Fluor-conjugated secondary IgG (all 1:100 dilution) for 60 min. The samples were then counterstained with Hoechst 33342 and analyzed in Zeiss LSM 700 confocal microscope (Thornhood, N.Y.). Corresponding mouse and rabbit sera were used as negative controls for primary monoclonal and polyclonal antibodies, respectively. Cell lysates were prepared in RIPA buffer and resolved on 4-15% (w/v) gradient acrylamide gels under denaturing and reducing conditions for Western blotting. The protein extracts were transferred to the nitrocellulose membrane, which was then blocked with 5% (w/v) fat-free milk in TBST [50 mM Tris-HCl, pH 7.5, 150 mM NaCl, 0.05% (v/v) Tween-20], followed by sequential incubation with the specific primary antibody against keratocan and its respective horseradish peroxidase (HRP)-conjugated secondary antibody using β-actin as the loading control. Immunoreactive proteins were detected with Western Lighting Chemiluminescence (PerkinElmer, Waltham, Mass.).

Q: For hyaluronic acid [HA], which “time of promoted CXCR4 mRNA expression” value [1] is on record?
A: The value was “not HA”.

Q: And the “time to aggregation in HCF” value [1]?
A: The value was “not HA”.

Q: What about the “aggregation of HCF” value [2] of the same substance?
A: The value was “formed some aggregates”.
